Laboratory results taken from patent publication US20250049809A1, “INHIBITORS OF MUTANT IDH1 AND IDH2” (Board of Regents, The University of Texas System, priority 2023, published 2025).

Columns and labels:
Format in all cases: biochemical
mIDH1R132H/S280F = mIDH1R132H/S280F (Homo sapiens (Human), UniProt O75874, R132H/S280F); assay: mIDH1 R132H/S280F enzymatic activity assay (NADPH fluorescence); conditions: enzyme assay, 1 hour preincubation; read-out: IDH1R132H/S280F IC50
Procedure: (§1) The enzymatic activity of mIDH1R132H/S280F was assessed by measuring the fluorescence of the NADPH. The assay was performed in 384 well, white ProxiPlates (PerkinElmer, 6008280) in assay buffer containing 50 mM Hepes (Life Technologies, 15630080), 50 mM KCl (Teknova, P0327), 10 mM MgCl2 (Sigma-Aldrich, M1028), 1 mM DTT (Sigma-Aldrich, 43815), 0.02% BSA (Sigma-Aldrich, A3059) at pH 7.5. The final reaction volume was 10 μL. Stock solutions of the test compounds were prepared in 100% DMSO (Sigma, D2650) and serially diluted 1:3 using 100% DMSO. 50 nL of compound were then transferred to the assay plate using the Beckman Coulter ECHO 650 Acoustic Liquid Handler for a final DMSO concentration of 0.5%. 5 μL of a mIDH1R132H/S280F and NADPH (Santa Cruz, SC202725C) mixture were added to the assay plate for a final concentration of 2 nM and 10 PM, respectively. 5 μL of NADPH alone were added to negative control wells followed by a 1 hour preincubation at room temperature. 5 μL of alphaketoglutarate (Sigma-Aldrich, K1128) were added to the assay plate for a final concentration of 120 μM. Fluorescence of NADPH (excitation: 350 nm, emission 450 nm) was immediately measured kinetically for approximately 90 minutes using the BioTek Synergy Neo plate reader.

mIDH2R140Q = mIDH2R140Q (Homo sapiens (Human), UniProt P48735, R140Q); assay: mIDH2 R140Q enzymatic activity assay (NADPH fluorescence); conditions: enzyme assay, 1 hour preincubation; read-out: IDH2R140Q IC50
Sequence of mIDH2R140Q (P48735 40-452 R140Q): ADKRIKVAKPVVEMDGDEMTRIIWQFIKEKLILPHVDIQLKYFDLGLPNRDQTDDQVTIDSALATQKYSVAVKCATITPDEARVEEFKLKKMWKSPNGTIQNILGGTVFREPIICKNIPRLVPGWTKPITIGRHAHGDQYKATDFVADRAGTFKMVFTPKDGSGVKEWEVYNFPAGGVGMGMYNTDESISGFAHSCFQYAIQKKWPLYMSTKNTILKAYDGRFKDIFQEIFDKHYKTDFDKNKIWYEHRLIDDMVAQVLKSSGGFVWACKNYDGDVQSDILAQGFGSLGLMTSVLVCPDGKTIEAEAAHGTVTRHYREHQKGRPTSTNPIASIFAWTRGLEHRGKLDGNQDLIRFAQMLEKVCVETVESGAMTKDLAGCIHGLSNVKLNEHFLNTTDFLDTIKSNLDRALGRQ
Procedure: as §1, with “of mIDH2R140Q” for “of mIDH1R132H/S280F”, “a mIDH2R140Q” for “a mIDH1R132H/S280F”, “of 3” for “of 2”, “10 μM,” for “10 PM,”, “of 300” for “of 120”, “approximately 150” for “approximately 90”

mIDH1R132H = mIDH1R132H (Homo sapiens (Human), UniProt O75874, R132H); assay: mIDH1 R132H enzymatic activity assay (NADPH fluorescence); conditions: enzyme assay; read-out: IDH1R132H IC50
Sequence of mIDH1R132H (O75874 whole entry R132H): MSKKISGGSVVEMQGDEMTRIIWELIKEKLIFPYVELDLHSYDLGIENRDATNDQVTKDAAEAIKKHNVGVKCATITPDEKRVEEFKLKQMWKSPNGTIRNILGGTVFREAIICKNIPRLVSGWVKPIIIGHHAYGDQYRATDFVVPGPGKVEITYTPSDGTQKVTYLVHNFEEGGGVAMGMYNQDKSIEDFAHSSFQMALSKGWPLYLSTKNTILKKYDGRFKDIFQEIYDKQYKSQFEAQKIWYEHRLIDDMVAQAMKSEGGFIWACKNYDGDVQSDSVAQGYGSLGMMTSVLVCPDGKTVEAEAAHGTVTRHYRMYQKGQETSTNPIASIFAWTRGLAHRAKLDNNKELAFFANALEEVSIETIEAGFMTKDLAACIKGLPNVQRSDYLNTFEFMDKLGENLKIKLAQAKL
Procedure: The enzymatic activity of mIDH1R132H was assessed by measuring the fluorescence of the NADPH. The assay was performed in 384 well, white ProxiPlates (PerkinElmer, 6008280) in assay buffer containing 50 mM Hepes (Life Technologies, 15630080), 50 mM KCl (Teknova, P0327), 10 mM MgCl2 (Sigma-Aldrich, M1028), 1 mM DTT (Sigma-Aldrich, 43815), 0.02% BSA (Sigma-Aldrich, A3059) at pH 7.5. The final reaction volume was 10 μL. Stock solutions of the test compounds were prepared in 100% DMSO (Sigma, D2650) and serially diluted 1:3 using 100% DMSO. 50 nL of compound were then transferred to the assay plate using the Beckman Coulter ECHO 650 Acoustic Liquid Handler for a final DMSO concentration of 0.5%. […] a mIDH1R132H and NADPH (Santa Cruz, SC202725C) mixture were added to the assay plate for a final concentration of 10 nM and 20 μM, respectively. 5 μL of NADPH alone were added to negative control wells. 5 μL of alphaketoglutarate (Sigma-Aldrich, K1128) were added to the assay plate for a final concentration of 200 μM. Fluorescence of NADPH (excitation: 350 nm, emission 450 nm) was immediately measured kinetically for approximately 60 minutes using the BioTek Synergy Neo plate reader.

WT IDH2 = WT IDH2 (Homo sapiens (Human), UniProt P48735); assay: WT IDH2 enzymatic activity assay (NADPH fluorescence); conditions: enzyme assay
Sequence of WT IDH2 (P48735 40-452): as the sequence (P48735 40-452 R140Q) above, with Q101R counted along it
Procedure: The enzymatic activity of WT IDH2 was assessed by measuring the fluorescence of the NADPH generated in the enzymatic reaction. The assay was performed in 384 well, white ProxiPlates (PerkinElmer, 6008280) in assay buffer containing 50 mM Hepes (Life Technologies, 15630080), 50 mM KCl (Teknova, P0327), 10 mM MgCl2 (Sigma-Aldrich, M1028), 1 mM DTT (Sigma-Aldrich, 43815), 0.02% BSA (Sigma-Aldrich, A3059) at pH 7.5. The final reaction volume was 10 μL. Stock solutions of the test compounds were prepared in 100% DMSO (Sigma, D2650) and serially diluted 1:3 using 100% DMSO. 50 nL of compound were then transferred to the assay plate using the Beckman Coulter ECHO 650 Acoustic Liquid Handler for a final DMSO concentration of 0.5%. 5 μL of WT IDH2 were added to the assay plate for a final concentration of 0.5 nM. 5 μL of assay buffer alone were added to negative control wells. 5 μL of an isocitrate (Sigma-Aldrich, 58790) and NADP (Sigma-Aldrich, N5755) mixture were added to the assay plate for a final concentration of 5 μM and 15 μM, respectively. Fluorescence of NADPH (excitation: 350 nm, emission 450 nm) was immediately measured kinetically for approximately 15 minutes using the BioTek Synergy Neo plate reader.

Sequence of mIDH1R132H/S280F (O75874 whole entry R132H/S280F): as the sequence (O75874 whole entry R132H) above, with S280F counted along it

## C=CC(=O)N1CCN(C2CCCC/C=C/CN3C(=O)OCc4cnc(nc43)N[C@@H](C)c3ccc2cc3)CC1 (stereo partly drawn) [Example 3, (3S,E)-5-(4-acryloylpiperazin-1-yl)-3-methyl-1^1,1^4-dihydro-1^2H-2-aza-1(7,1)-pyrimido[4,5-d][1,3]oxazina-4(1,4)-benzenacyclododecaphan-10-en-1^2-one]
mIDH1R132H/S280F
  IC50: 260 nM
mIDH2R140Q
  IC50: 1440 nM
mIDH1R132H
  IC50: 3.3 nM
WT IDH2
  IC50: 16200 nM

## C=CC(=O)N1CCN(C2CCCCCCCN3C(=O)OCc4cnc(nc43)N[C@@H](C)c3ccc2cc3)CC1 (stereo partly drawn) [Example 4, (3S)-5-(4-acryloylpiperazin-1-yl)-3-methyl-1^1,1^4-dihydro-1^2H-2-aza-1(7,1)-pyrimido[4,5-d][1,3]oxazina-4(1,4)-benzenacyclododecaphan-1^2-one]
mIDH1R132H/S280F
  IC50: 295 nM
mIDH2R140Q
  IC50: 1680 nM
mIDH1R132H
  IC50: 4 nM
WT IDH2
  IC50: 41200 nM
